Reference: patent US8278072B1, “Method for synthesis of sialylated products using reversible sialylation” (Health Research, Inc., priority 2007, dated 2012)

Biological target: T1, ST3Gal-II (Rattus norvegicus, UniProt Q11205)
T1 construct: purchased Calbiochem
T1 sequence (Q11205 1-350): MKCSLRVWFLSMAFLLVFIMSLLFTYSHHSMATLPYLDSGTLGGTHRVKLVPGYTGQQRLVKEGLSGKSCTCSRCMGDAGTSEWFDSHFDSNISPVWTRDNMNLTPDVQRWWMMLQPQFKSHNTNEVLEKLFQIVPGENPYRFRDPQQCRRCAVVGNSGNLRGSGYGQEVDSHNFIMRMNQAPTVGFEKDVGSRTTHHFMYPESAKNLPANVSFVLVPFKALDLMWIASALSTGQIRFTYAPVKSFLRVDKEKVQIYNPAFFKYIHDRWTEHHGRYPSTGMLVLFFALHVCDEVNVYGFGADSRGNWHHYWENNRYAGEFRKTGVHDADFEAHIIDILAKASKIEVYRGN
Experiment: Reverse sialylation by ST3Gal-II in presence of citrate or 5′-nucleotides
Assay type: biochemical
Settings: 0.2 mM [3], 7 mM 5′-CMP, no [5], Dowex-1 Formate
Protocol: FIG. 5. Effect of 5′-nucleotides on direct sialyltransferase activity (panel a) and reverse sialylation (panel b). a. Varying concentrations of 5′-CDP or 5′-CMP were added to 100 mM acceptor (specified below), 0.15 mM CMP-[9-^3H]NeuAc and either ST3Gal-II (0.2 mU), ST3Gal-III (0.5 mU) or ST6Gal-I (0.2 mU) for 4 h at 37° C. Products were separated using Sep-Pak C18 method. ST3Gal-III activity was measured using acceptor 4-O-MeGalβ1,4GlcNAcβ-O-Bn in the presence of 5′-CDP (●) and 5′-CMP (◯). ST6Gal-I activity was measured using Gal β1,4GlcNAcβ-O-Bn in the presence of 5′-CDP (▴) and 5′-CMP (Δ). ST3Gal-II using D-Fucβ1,3GalNAcα-O-Bn in the presence of 5′-CDP (▪) and 5′-CMP (□). b) Reverse sialylation by ST3Gal-II was measured in reaction mixtures containing 0.2 mM [9-^3H] [3], 7 mM 5′-CMP, ST3Gal-II (2 mU), D-Fucβ1,3GalNAcα-OBn (3.0 mM) and varying doses of either 5′-CDP (▴), 5′-UMP (◯) or 2-deoxy 5′-CMP (●) for 4 hours at 37° C. Reaction product ([9-^3H]NeuAcα2,3DFucβ1,3 GalNAcα-O-Bn) was isolated using Sep-Pak C18 method. In some runs, where was absent, the amount of CMP-NeuAc produced was quantified using the Dowex-1 Formate method in the presence of varying doses of 5′-CDP (▪).
Besides pH other distinctions were also observed between forward and reverse sialylation. In this regard, citrate ions tended to inhibit forward sialylation but not reverse sialylation activity (Table V). For these studies, the effect of citrate on the forward sialylation activity of ST3Gal-I, ST3Gal-II, ST3Gal-III and ST6Gal-I was examined. Reverse sialylation activity of ST3Gal-II was also measured in terms of: i) the formation of CMP-NeuAc from 5′-CMP; and ii) the transfer of NeuAc from this newly synthesized CMP-NeuAc to another O-glycan. From the data (Table V), it is evident that citrate inhibits the direct sialylation activity of all the enzymes mentioned above. However, both the synthesis of CMP-[9-^3H]NeuAc from 5′-CMP as well as the synthesis of [9-^3H]NeuAcα2,3D-Fucβ1,3 GalNAcα-O-Bn using the newly formed CMP-[9-^3H]NeuAc through reverse sialylation of ST3Gal-II was not inhibited by citrate.
The effect of 5′-nucleotides on forward sialylation (FIG. 5a) and reverse sialylation (FIG. 5b) were examined. […] The overall formation of [9-^3H]NeuAcα2,3D-Fucβ1,3 GalNAcα-O-Bn by the two-step reverse sialylation process, however, was inhibited by 5′-CDP and this is consistent with the finding that 5′-CDP inhibits forward sialylation in the second step.

Effect on first step of reverse sialylation (formation of CMP-[9-3H]NeuAc from 5′-CMP): did not inhibit
Compound: Nc1ccn([C@@H]2O[C@H](COP(=O)(O)OP(=O)(O)O)[C@@H](O)[C@H]2O)c(=O)n1 [5′-CDP]
